Assay results from ChEMBL document CHEMBL5233278, “Recent Advances in the Medicinal Chemistry of Farnesoid X Receptor” (J Med Chem, 2021).
Blank lines part the entries; values can stand above or below the compound they belong to.

Assays:
[1] = target: T1, Bifunctional epoxide hydrolase 2 (Homo sapiens, UniProt P34913); experiment: Inhibition of sEH (unknown origin)
T1 sequence (P34913 whole entry): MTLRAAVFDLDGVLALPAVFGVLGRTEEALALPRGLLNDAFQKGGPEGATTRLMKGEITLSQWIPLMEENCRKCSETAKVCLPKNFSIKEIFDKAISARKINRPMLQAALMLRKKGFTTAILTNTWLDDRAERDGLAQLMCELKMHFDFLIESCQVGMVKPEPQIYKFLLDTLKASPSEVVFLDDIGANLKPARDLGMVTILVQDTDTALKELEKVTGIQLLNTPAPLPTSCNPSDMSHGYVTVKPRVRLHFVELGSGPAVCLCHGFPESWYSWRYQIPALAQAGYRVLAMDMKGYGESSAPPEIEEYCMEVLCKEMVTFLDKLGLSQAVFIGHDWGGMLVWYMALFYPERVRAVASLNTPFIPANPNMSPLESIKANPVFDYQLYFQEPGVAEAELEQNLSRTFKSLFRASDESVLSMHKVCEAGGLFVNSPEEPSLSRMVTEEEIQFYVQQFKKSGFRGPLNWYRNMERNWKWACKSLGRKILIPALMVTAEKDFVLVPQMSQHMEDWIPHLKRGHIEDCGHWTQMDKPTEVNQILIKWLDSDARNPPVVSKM

Bile acid receptor [2] = target: T2, Bile acid receptor (Homo sapiens, UniProt Q96RI1); experiment: Agonist activity at FXR in human HeLa cells incubated for 24 hrs by Dual-Glo luciferase assay; type: cell-based; conditions: hela
T2 sequence (Q96RI1 whole entry): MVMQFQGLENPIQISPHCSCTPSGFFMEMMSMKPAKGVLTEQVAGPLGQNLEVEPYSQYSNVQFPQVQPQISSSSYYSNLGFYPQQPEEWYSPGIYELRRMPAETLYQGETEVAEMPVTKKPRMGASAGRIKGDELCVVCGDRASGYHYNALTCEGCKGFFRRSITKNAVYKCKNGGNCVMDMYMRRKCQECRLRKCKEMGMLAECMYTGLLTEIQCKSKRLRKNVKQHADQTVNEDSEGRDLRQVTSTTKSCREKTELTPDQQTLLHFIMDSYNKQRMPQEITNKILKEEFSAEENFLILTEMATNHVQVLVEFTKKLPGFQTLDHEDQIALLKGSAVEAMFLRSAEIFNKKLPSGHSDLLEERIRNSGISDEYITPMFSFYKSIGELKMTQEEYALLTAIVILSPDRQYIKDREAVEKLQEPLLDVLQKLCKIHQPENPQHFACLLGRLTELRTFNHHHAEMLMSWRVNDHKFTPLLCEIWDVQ

Bile acid receptor [3] = target: T2, Bile acid receptor; experiment: Agonist activity at FXR in human HeLa cells by Dual-Glo luciferase assay; type: cell-based
Bile acid receptor [4] = target: T2, Bile acid receptor; experiment: Agonist activity at FXR (unknown origin)
Bile acid receptor [5] = target: T2, Bile acid receptor; experiment: Agonist activity at human FXR incubated for 24 hrs by luciferase reporter assay
[6] = target: T3, Bile acid receptor (Homo sapiens) (UniProt Q96RI1); experiment: Agonist activity at FXR in HEK293 cells assessed as maximum efficacy relative to control; type: cell-based; conditions: filed as agonist
T3 sequence (whole entry): T2 sequence (Q96RI1 whole entry)

[7] = AUC(0 to 24 hrs) in Sprague-Dawley rat liver at 5 mg/kg, po measured up to 24 hrs by LC-MS-MS analysis; type: ADME, organism-based; design: dose 5 mg/kg, time < 24 hrs, route po; conditions: in vivo
[8] = AUC(0 to 24 hrs) in Sprague-Dawley rat serum at 5 mg/kg, po measured up to 24 hrs by LC-MS-MS analysis; type: ADME, organism-based; design: dose 5 mg/kg, time < 24 hrs, route po
[9] = Cmax in Sprague-Dawley rat liver at 5 mg/kg, po measured up to 24 hrs by LC-MS-MS analysis; type: ADME, organism-based; design: time < 24 hrs, dose 5 mg/kg, route po
[10] = Cmax in Sprague-Dawley rat serum at 5 mg/kg, po measured up to 24 hrs by LC-MS-MS analysis; type: ADME, organism-based; design: dose 5 mg/kg, time < 24 hrs, route po
[11] = AUC(0 to 24 hrs) in Sprague-Dawley rat serum at 1 mg/kg, iv measured up to 24 hrs by LC-MS-MS analysis; type: ADME, organism-based; design: dose 1 mg/kg, time < 24 hrs, route iv
[12] = Cmax in Sprague-Dawley rat serum at 1 mg/kg, iv measured up to 24 hrs by LC-MS-MS analysis; type: ADME, organism-based; design: time < 24 hrs, dose 1 mg/kg, route iv
Bile acid receptor [13] = target: T2, Bile acid receptor; experiment: Agonist activity at FXR in HEK293T cells by steady-glo luciferase assay; type: cell-based
[14] = target: Bile acid receptor (Homo sapiens) (UniProt Q96RI1); experiment: Agonist activity at FXR in human HepG2 cells at 3 uM relative to control; conditions: filed as agonist
[15] = target: Bile acid receptor (Homo sapiens) (UniProt Q96RI1); experiment: Agonist activity at FXR in human HepG2 cells coexpressing BSEP at 0.3 uM relative to control; conditions: filed as agonist
[16] = Oral bioavailability in Sprague-Dawley rat at 5 mg/kg administered via gavage by LC-MS/MS analysis; type: ADME, organism-based; conditions: in vivo
Mus musculus [17] = experiment: Anti-NASH activity in nonalcoholic steatohepatitis C57BL/6 mouse model assessed as decrease in level of serum ALT 10 mg/kg, iv relative to control; type: functional; design: scale not given: the % may be the effect or the level left
Mus musculus [18] = experiment: Anti-NASH activity in nonalcoholic steatohepatitis C57BL/6 mouse model assessed as decrease in level of serum AST 10 mg/kg, iv relative to control; type: functional; design: scale not given: the % may be the effect or the level left
Bile acid receptor [19] = target: T2, Bile acid receptor; experiment: Agonist activity at FXR in HEK293T cells by lanthascreen TR-FRET assay; type: cell-based
[20] = Metabolic stability in human liver microsomes assessed as half life in presence of NADPH incubated up to 60 mins by LC-MS/MS analysis; type: ADME, Microsome
[21] = Stability in human plasma assessed as half life; type: ADME, cell-free
[22] = target: Voltage-gated inwardly rectifying potassium channel KCNH2 (Homo sapiens, UniProt Q12809); experiment: Inhibition of hERG; type: toxicity
Chain of Voltage-gated inwardly rectifying potassium channel KCNH2 (Q12809 whole entry): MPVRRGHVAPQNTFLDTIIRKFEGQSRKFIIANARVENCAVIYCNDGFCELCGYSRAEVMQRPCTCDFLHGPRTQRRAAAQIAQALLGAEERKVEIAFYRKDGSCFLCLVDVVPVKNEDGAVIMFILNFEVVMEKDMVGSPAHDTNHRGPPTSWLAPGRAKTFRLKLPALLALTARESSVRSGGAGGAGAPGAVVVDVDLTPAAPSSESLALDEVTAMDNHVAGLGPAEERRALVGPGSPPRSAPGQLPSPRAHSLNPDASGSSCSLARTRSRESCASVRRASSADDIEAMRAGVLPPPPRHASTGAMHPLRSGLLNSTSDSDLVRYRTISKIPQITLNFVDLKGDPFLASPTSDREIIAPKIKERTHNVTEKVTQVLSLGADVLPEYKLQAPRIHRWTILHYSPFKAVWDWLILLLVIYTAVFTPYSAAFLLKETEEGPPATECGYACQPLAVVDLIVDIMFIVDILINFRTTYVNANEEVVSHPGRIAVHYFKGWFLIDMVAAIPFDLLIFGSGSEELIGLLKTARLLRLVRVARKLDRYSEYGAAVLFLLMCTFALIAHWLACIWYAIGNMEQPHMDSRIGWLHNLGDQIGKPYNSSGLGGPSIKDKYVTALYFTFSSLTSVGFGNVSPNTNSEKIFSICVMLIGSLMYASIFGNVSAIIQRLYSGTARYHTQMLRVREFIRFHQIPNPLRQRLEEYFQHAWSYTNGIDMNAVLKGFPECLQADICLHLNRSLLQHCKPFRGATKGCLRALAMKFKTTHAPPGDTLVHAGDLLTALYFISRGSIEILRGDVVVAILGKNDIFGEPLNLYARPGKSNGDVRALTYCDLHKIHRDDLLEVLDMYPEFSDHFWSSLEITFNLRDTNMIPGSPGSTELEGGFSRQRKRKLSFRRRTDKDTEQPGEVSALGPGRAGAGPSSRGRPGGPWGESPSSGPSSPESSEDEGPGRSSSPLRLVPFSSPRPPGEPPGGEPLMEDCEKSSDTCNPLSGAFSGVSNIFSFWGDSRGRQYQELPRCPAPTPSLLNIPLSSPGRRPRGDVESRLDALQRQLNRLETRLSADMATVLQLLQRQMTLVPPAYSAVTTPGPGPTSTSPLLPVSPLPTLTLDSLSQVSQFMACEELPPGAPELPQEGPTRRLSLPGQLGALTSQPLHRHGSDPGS

EC50 (Bile acid receptor [4]): < 0.05 µM
SMILES: O=C(O)c1ccc(-c2nc(N3[C@@H]4CC[C@H]3C[C@@H](OCc3c(-c5c(Cl)cccc5Cl)noc3C3CC3)C4)no2)cc1F

Emax [6]: 101%
AUC [7]: 14971 ng·h/g
AUC(0-t) at 24 h [8]: 1.18 µg·h/mL
Cmax [9]: 3370 ng/g
Cmax [10]: 0.252 µg/mL
AUC(0-t) at 24 h [11]: 2.41 µg·h/mL
Cmax [12]: 4.34 µg/mL
EC50 (Bile acid receptor [13]): 0.012 µM
SMILES: O=C(O)c1ccc(-c2csc(N3CCC(OCc4c(-c5c(Cl)cccc5Cl)noc4C4CC4)CC3)n2)cc1

Activity [14]: 100%
SMILES: O=C(O)c1ccc([C@@H]2C[C@H]2c2ccc(OCc3c(-c4c(Cl)cccc4Cl)noc3C3CC3)cc2Cl)cc1
Activity [15]: 60%

Activity [14]: 125%
SMILES: O=C(O)c1ccc2nc(N3CCC(OCc4c(-c5c(Cl)cccc5Cl)noc4C4CC4)C4CC43)sc2c1 (stereo unspecified)
Activity [15]: 64%

EC50 (Bile acid receptor [19]): < 0.1 µM
SMILES: CCc1onc(-c2c(Cl)cccc2Cl)c1COc1ccc(C2(C)CC2c2ccc(C(=O)O)cc2)c(Cl)c1 (stereo unspecified)

EC50 (Bile acid receptor [13]): 0.005 µM
SMILES: Cc1cc(OCc2c(-c3c(Cl)cccc3Cl)noc2C2CC2)ccc1C1=NOC(c2ccc(C(=O)O)nc2)C1 (stereo unspecified)
IC50 [22]: > 30 µM

EC50 (Bile acid receptor [13]): 0.01 µM
SMILES: Cc1cc(OCc2c(-c3c(Cl)cccc3Cl)noc2C2CC2)ccc1C1=NOC(c2cc(C(=O)O)nn2C)C1 (stereo unspecified)
IC50 [22]: > 30 µM

EC50 (Bile acid receptor [13]): 0.023 µM
SMILES: CCn1nc(C(=O)O)cc1C1CC(c2ccc(OCc3c(-c4c(Cl)cccc4Cl)noc3C3CC3)cc2C)=NO1 (stereo unspecified)
IC50 [22]: > 30 µM

More lines, now with the values behind:

SMILES: COc1cc(C(=O)O)ccc1Cn1ccc2ccc(NC(=O)c3ccc(C(C)(C)C)cc3)cc21
IC50 [1]: 1.7 µM
EC50 (Bile acid receptor [2]): 0.26 µM

SMILES: O=C(O)c1cccc(NC(=O)c2ccc(OCCCCc3ccccc3)cc2)c1
EC50 (Bile acid receptor [3]): 0.026 µM

SMILES: COc1cccc(-c2ccc(NC(=O)C3=C(C(=O)O)CCC3)c(F)c2)c1 [VIDOFLUDIMUS]
EC50 (Bile acid receptor [4]): 0.45 µM

SMILES: CC[C@H]1[C@@H](O)[C@@H]2[C@H](CC[C@]3(C)[C@@H]([C@H](C)CCNC(=O)NS(=O)(=O)c4ccc(C(C)(C)C)cc4)CC[C@@H]23)[C@@]2(C)CC[C@@H](O)[C@H](F)[C@@H]12
EC50 (Bile acid receptor [5]): 0.019 µM

SMILES: O=C(O)c1ccc2c(c1)Oc1ccc(OCc3c(-c4ccccc4OC(F)(F)F)noc3C3CC3)nc1C1(CC1)C2
bioavailability [16]: 71.3%

SMILES: CC(C)n1ncc(-c2c(Cl)cccc2Cl)c1COc1ccc(N(C)Cc2cccc(C(=O)O)c2)c(C(F)(F)F)c1
Activity (Mus musculus [17]): 63%
Activity (Mus musculus [18]): 59%

SMILES: O=C(O)c1ccc(-c2csc(N3[C@@H]4CC[C@H]3C[C@@H](OCc3c(-c5ccccc5OC(F)(F)F)noc3C3CC3)C4)n2)cc1C(F)(F)F
half-life [20]: 2.5 h

SMILES: O=C(O)c1cccc(NC(=O)c2ccc(OCc3ccccc3)cc2)c1
EC50 (Bile acid receptor [3]): 0.0091 µM

SMILES: O=C(O)c1cccc(NC(=O)c2ccc(Oc3ccccc3)cc2)c1
EC50 (Bile acid receptor [3]): 0.01 µM

SMILES: O=C(O)c1cc(F)c2nc(N3C[C@@H]4CC[C@H]3C[C@@H]4OCc3c(-c4ccccc4OC(F)(F)F)noc3C3CC3)sc2c1
Activity [14]: 125%
Activity [15]: 84%

SMILES: Cc1ccc(Cl)cc1N1CCN(C(=O)C23CC4CC(CC(C4)C2)C3)CC1
half-life [21]: > 8.33 h

SMILES: Cc1cc(OCc2c(-c3c(Cl)cccc3Cl)noc2C2CC2)ccc1C1=NOC(c2cccc(C(=O)O)c2)C1 (stereo unspecified)
IC50 [22]: > 30 µM

SMILES: CC[C@H]1[C@@H](O)[C@@H]2[C@H](CC[C@]3(C)[C@@H]([C@H](C)CCNC(=O)NS(=O)(=O)c4ccc(C)cc4)CC[C@@H]23)[C@@]2(C)CC[C@@H](O)[C@H](F)[C@@H]12
EC50 (Bile acid receptor [5]): 0.018 µM
